Organism: Rattus norvegicus
Test: Open TG-GATES - Regimen: Single
Assay type: toxicity, organism-based, Sprague-Dawley
Parameters: regimen Single, gender Male, age 6 weeks
Conditions: in vivo, iv, route intravenous injection; for KIDNEY_L / KIDNEY_R / KIDNEY_TOTAL: tissue Kidney; for LIVER: tissue Liver; for ALP / ALT / BUN / CRE / DBIL / GLC / IP / K / LDH / PL / RALB / TBIL / TC / TG / TP / gamma-GTP / AST / Na: tissue Plasma
[1] = 30 mg/kg, 3 h, tissue Blood, dose level Middle
[2] = 30 mg/kg, 3 h, dose level Middle
[3] = 30 mg/kg, 6 h, tissue Blood, dose level Middle
[4] = 30 mg/kg, 6 h, dose level Middle
[5] = 30 mg/kg, 9 h, dose level Middle
[6] = 30 mg/kg, 9 h, tissue Blood, dose level Middle
[7] = 30 mg/kg, 24 h, dose level Middle
[8] = 30 mg/kg, 24 h, tissue Blood, dose level Middle
[9] = 100 mg/kg, 3 h, tissue Blood, dose level High
[10] = 100 mg/kg, 3 h, dose level High
[11] = 100 mg/kg, 6 h, dose level High
[12] = 100 mg/kg, 6 h, tissue Blood, dose level High
[13] = 100 mg/kg, 9 h, dose level High
[14] = 100 mg/kg, 9 h, tissue Blood, dose level High
[15] = 100 mg/kg, 24 h, dose level High
[16] = 100 mg/kg, 24 h, tissue Blood, dose level High

## CARBOPLATIN
[1]
  APTT: 23.3 s
  Bas: 0%
  Eos: 1%
  Fbg: 273.2 mg/dL
  Hb: 13 g/dL
  Ht: 40.3%
  Lym: 81.8%
  MCV: 63.6 fL
  Mono: 2.4%
  PT: 15.6 s
  Plat: 123.8 x10_4/uL
  RBC: 633.4 x10_4/ul
  Ret: 5.6%
  WBC: 77.3 x10_2/uL
[2]
  KIDNEY_L: 0.9 g
  KIDNEY_R: 0.9 g
  KIDNEY_TOTAL: 1.9 g
  LIVER: 9.5 g
  ALP: 1595 IU/L
  ALT: 41.4 IU/L
  BUN: 11 mg/dL
  CRE: 0.2 mg/dL
  DBIL: 0 mg/dL
  GLC: 175 mg/dL
  IP: 8.6 mg/dL
  K: 4 meq/L
  LDH: 183.4 IU/L
  PL: 126.6 mg/dL
  RALB: 3 g/dL
  TBIL: 0.014 mg/dL
  TC: 67 mg/dL
  TG: 75 mg/dL
  TP: 5.4 g/dL
  gamma-GTP: 1.2 IU/L
[3]
  APTT: 22.6 s
  Bas: 0%
  Eos: 0.8%
  Fbg: 273.4 mg/dL
  Hb: 12.8 g/dL
  Ht: 39.7%
  Lym: 77.4%
  MCHC: 32.2%
  MCV: 63.8 fL
  Mono: 4%
  Neu: 16.6%
  PT: 15.9 s
  Plat: 120 x10_4/uL
  RBC: 623.2 x10_4/ul
  Ret: 6.3%
  WBC: 102.3 x10_2/uL
[4]
  KIDNEY_L: 0.9 g
  KIDNEY_R: 0.9 g
  KIDNEY_TOTAL: 1.8 g
  LIVER: 8.7 g
  ALP: 1276.8 IU/L
  ALT: 42 IU/L
  AST: 77.8 IU/L
  CRE: 0.2 mg/dL
  DBIL: 0 mg/dL
  GLC: 174.6 mg/dL
  IP: 9.6 mg/dL
  K: 4.4 meq/L
  Na: 139.4 meq/L
  PL: 126 mg/dL
  RALB: 2.9 g/dL
  TBIL: 0.012 mg/dL
  TC: 73.4 mg/dL
  TG: 68.6 mg/dL
  TP: 5.3 g/dL
  gamma-GTP: 1 IU/L
[5]
  TERMINAL_BW: 197.2 g
  KIDNEY_L: 0.9 g
  KIDNEY_R: 1 g
  KIDNEY_TOTAL: 1.9 g
  LIVER: 7.9 g
  ALP: 1295.4 IU/L
  ALT: 38.8 IU/L
  AST: 81 IU/L
  BUN: 10 mg/dL
  CRE: 0.1 mg/dL
  DBIL: 0 mg/dL
  GLC: 173.6 mg/dL
  IP: 9.7 mg/dL
  K: 4.3 meq/L
  LDH: 182.2 IU/L
  Na: 139.6 meq/L
  PL: 118.8 mg/dL
  RALB: 2.9 g/dL
  TBIL: 0.014 mg/dL
  TC: 63 mg/dL
  TG: 55 mg/dL
  TP: 5.4 g/dL
  gamma-GTP: 1.2 IU/L
[6]
  APTT: 24.3 s
  Bas: 0%
  Eos: 0.6%
  Fbg: 280.2 mg/dL
  Hb: 12.8 g/dL
  Ht: 39.6%
  Lym: 72.2%
  MCHC: 32.4%
  MCV: 62 fL
  Mono: 2.4%
  Neu: 24%
  PT: 15.9 s
  Plat: 119 x10_4/uL
  RBC: 638.6 x10_4/ul
  Ret: 5.9%
  WBC: 68.8 x10_2/uL
[7]
  TERMINAL_BW: 208.3 g
  KIDNEY_L: 0.9 g
  KIDNEY_R: 1 g
  KIDNEY_TOTAL: 1.9 g
  LIVER: 9.3 g
  ALP: 1504.2 IU/L
  ALT: 44.8 IU/L
  AST: 72.8 IU/L
  CRE: 0.2 mg/dL
  DBIL: 0.002 mg/dL
  GLC: 179.6 mg/dL
  IP: 8.1 mg/dL
  K: 4.3 meq/L
  LDH: 211.2 IU/L
  Na: 139.8 meq/L
  PL: 126.6 mg/dL
  RALB: 3 g/dL
  TBIL: 0.02 mg/dL
  TC: 70.4 mg/dL
  TG: 60.4 mg/dL
  TP: 5.5 g/dL
  gamma-GTP: 1.2 IU/L
[8]
  APTT: 23 s
  Bas: 0%
  Eos: 0.8%
  Fbg: 295.6 mg/dL
  Hb: 12.9 g/dL
  Ht: 39.9%
  Lym: 88.4%
  MCHC: 32.2%
  Mono: 3.4%
  Neu: 6.6%
  PT: 16.1 s
  Plat: 125 x10_4/uL
  RBC: 639.8 x10_4/ul
  Ret: 4.5%
  WBC: 72.2 x10_2/uL
[9]
  APTT: 22.8 s
  Bas: 0%
  Eos: 0.6%
  Fbg: 275 mg/dL
  MCHC: 32.4%
  MCV: 64.2 fL
  Mono: 2.8%
  Neu: 17.2%
  PT: 15.7 s
  Plat: 123.5 x10_4/uL
  RBC: 630.8 x10_4/ul
  Ret: 6.4%
  WBC: 81.4 x10_2/uL
[10]
  KIDNEY_L: 0.9 g
  KIDNEY_R: 0.9 g
  KIDNEY_TOTAL: 1.9 g
  LIVER: 9.2 g
  ALP: 1630.8 IU/L
  ALT: 45 IU/L
  BUN: 12 mg/dL
  CRE: 0.2 mg/dL
  DBIL: 0 mg/dL
  GLC: 170.6 mg/dL
  IP: 9.1 mg/dL
  K: 4.2 meq/L
  LDH: 173.8 IU/L
  PL: 129 mg/dL
  RALB: 3 g/dL
  TBIL: 0.014 mg/dL
  TC: 69.8 mg/dL
  TG: 70.8 mg/dL
  TP: 5.3 g/dL
  gamma-GTP: 1.2 IU/L
[11]
  TERMINAL_BW: 200.2 g
  KIDNEY_L: 1 g
  KIDNEY_R: 1 g
  KIDNEY_TOTAL: 1.9 g
  LIVER: 8.2 g
  ALP: 1531.2 IU/L
  ALT: 40.4 IU/L
  AST: 84.4 IU/L
  BUN: 10.8 mg/dL
  CRE: 0.2 mg/dL
  DBIL: 0 mg/dL
  GLC: 176.6 mg/dL
  IP: 9.5 mg/dL
  K: 4.2 meq/L
  LDH: 177.8 IU/L
  Na: 140 meq/L
  PL: 109.6 mg/dL
  RALB: 2.9 g/dL
  TBIL: 0.02 mg/dL
  TC: 61.8 mg/dL
  TG: 37.4 mg/dL
  TP: 5.3 g/dL
  gamma-GTP: 1.2 IU/L
[12]
  APTT: 24.4 s
  Bas: 0%
  Eos: 0.8%
  Fbg: 286.8 mg/dL
  Ht: 41.1%
  Lym: 76%
  MCH: 20 pg
  MCHC: 32.2%
  MCV: 62.2 fL
  Mono: 6.4%
  Plat: 125.8 x10_4/uL
  RBC: 663.8 x10_4/ul
  Ret: 5.2%
  WBC: 91 x10_2/uL
[13]
  TERMINAL_BW: 204.6 g
  KIDNEY_L: 0.9 g
  KIDNEY_R: 1 g
  KIDNEY_TOTAL: 1.9 g
  LIVER: 8.4 g
  ALP: 1146.6 IU/L
  ALT: 34.4 IU/L
  AST: 72.8 IU/L
  CRE: 0.2 mg/dL
  DBIL: 0 mg/dL
  GLC: 174.8 mg/dL
  IP: 9.9 mg/dL
  K: 4.5 meq/L
  LDH: 172.4 IU/L
  Na: 139.4 meq/L
  RALB: 2.9 g/dL
  TBIL: 0.022 mg/dL
  TC: 69.2 mg/dL
  TG: 54.4 mg/dL
  TP: 5.2 g/dL
  gamma-GTP: 1.6 IU/L
[14]
  APTT: 24.9 s
  Bas: 0%
  Eos: 0.8%
  Fbg: 299.4 mg/dL
  Ht: 40.5%
  Lym: 73.8%
  MCHC: 32.4%
  MCV: 62.8 fL
  Mono: 3.4%
  Neu: 21.2%
  PT: 15.9 s
  Plat: 136.6 x10_4/uL
  RBC: 645.2 x10_4/ul
  Ret: 6.1%
  WBC: 69 x10_2/uL
[15]
  TERMINAL_BW: 203.7 g
  KIDNEY_L: 0.9 g
  KIDNEY_R: 1 g
  KIDNEY_TOTAL: 1.9 g
  LIVER: 8.8 g
  ALP: 1486.6 IU/L
  ALT: 41.2 IU/L
  AST: 76.8 IU/L
  CRE: 0.2 mg/dL
  DBIL: 0.002 mg/dL
  GLC: 179.2 mg/dL
  IP: 8.4 mg/dL
  K: 4.3 meq/L
  LDH: 176.8 IU/L
  PL: 135.6 mg/dL
  RALB: 3.1 g/dL
  TBIL: 0.022 mg/dL
  TC: 78.6 mg/dL
  TG: 51.2 mg/dL
  TP: 5.6 g/dL
  gamma-GTP: 1.2 IU/L
[16]
  APTT: 23.6 s
  Bas: 0%
  Eos: 0.2%
  Fbg: 306.2 mg/dL
  Hb: 12.9 g/dL
  Ht: 40.2%
  Lym: 82.6%
  MCHC: 32.2%
  Mono: 4%
  Neu: 12%
  PT: 16.2 s
  Plat: 123.1 x10_4/uL
  RBC: 641.4 x10_4/ul
  Ret: 2.7%
  WBC: 69.6 x10_2/uL
